# Values joined by “and” are separate entries in the source; they are usually repeats but may differ in a detail not shown here. Identical values can stand only once. Like-named read-outs stand apart in the source and are kept apart here.
# How the values were obtained:
# [1] = crystalline form of US 2005/0085495 (WO2005/037824); cited from earlier work
# [2] = Chemical stability at 30° C./65% relative humidity for 4 weeks (HPLC); type: physicochemical; details: stable means purity change less than about 1% by HPLC, solid state form maintained
# [3] = Stability and hygroscopicity at 40° C./75% relative humidity; type: physicochemical
# Description: The term “non-hygroscopic” as used herein, and unless stated otherwise, refers to crystalline Afatinib di-maleate uptaking/absorbing less than 0.2% (w/w) of atmospheric water to the crystalline Afatinib di-maleate in the below specified conditions, as measured by Karl-Fischer (KF) titration or by monitoring the weight increase during dynamic vapour sorption (DVS) test.
# [4] = Investigation of hygroscopicity (dynamic vapour sorption) with Karl-Fischer titration of the product; type: physicochemical
# Method: Karl-Fischer titration was carried out using […] from Merck (HX908240). The instructions of the manual were followed and each sample was analyzed in triplicate. […] Investigation of Hygroscopicity (Dynamic Vapour Sorption (DVS)) Instrument: SPSx-1μ, (Projekt Messtechnik) Temperature: 25° C. Humidity cycles: [table] […] Then the sample was analyzed by XRD diffraction.
smiles,measurement,setting,value
"CN(C)C/C=C/C(=O)Nc1cc2c(Nc3ccc(F)c(Cl)c3)ncnc2cc1O[C@H]1CCOC1 [Afatinib di-maleate, (E)-4-Dimethylamino-but-2-enoic acid {4-(3-chloro-4-fluoro-phenylamino)-7-[(S)-(tetrahydro-furan-3-yl)oxy]-quinazolin-6-yl}-amide]",hygroscopicity,[1],limited hygroscopisity
same,polymorphic stability,[1],polymorphically stable
"CN(C)C/C=C/C(=O)Nc1cc2c(Nc3ccc(F)c(Cl)c3)ncnc2cc1O[C@H]1CCOC1 [Form C, (E)-4-Dimethylamino-but-2-enoic acid {4-(3-chloro-4-fluoro-phenylamino)-7-[(S)-(tetrahydro-furan-3-yl)oxy]-quinazolin-6-yl}-amide]",chemical stability,[2],chemically stable
"CN(C)C/C=C/C(=O)Nc1cc2c(Nc3ccc(F)c(Cl)c3)ncnc2cc1O[C@H]1CCOC1 [Form E, (E)-4-Dimethylamino-but-2-enoic acid {4-(3-chloro-4-fluoro-phenylamino)-7-[(S)-(tetrahydro-furan-3-yl)oxy]-quinazolin-6-yl}-amide]",hygroscopicity,[3],not hygroscopic
same,polymorphic stability,[3]; stable means less than 1% converts to any other solid state form,polymorphically stable
same,"water content (% by weight), average","[4]; Karl-Fischer titration, average of triplicate, after DVS of Form A at 25° C.",7.00 % by weight
same,water content (% by weight),"[4]; Karl-Fischer titration, single determinations of a triplicate, after DVS humidity cycles of Form A at 25° C., 0-95% relative humidity, listed as Afatinib di-maleate after DVS of Form A",6.95 % by weight and 7.15 % by weight and 6.90 % by weight
same,decomposition after DVS,[4]; obtained product analysed by 1H-NMR and HPLC,no decomposition

# Source: patent US20150232457A1, “CRYSTALLINE FORMS OF AFATINIB DI-MALEATE” (RATIOPHARM GMBH, priority 2011, published 2015)
